Measurements published in patent publication US20230234936A1, “COMPOUND FOR TARGETING AND DEGRADING PROTEIN, AND PREPARATION METHOD THEREFOR AND USE THEREOF” (SHANGHAI LEADINGTAC PHARMACEUTICAL CO., LTD., priority 2020, published 2023).

Key:
[1] = target: T1, IRAK4 protein in THP-1 cells (Homo sapiens, UniProt Q9NWZ3); experiment: Degradation of IRAK4 in THP-1 cells (Western blot); format: cell-based; details: 24 hours, compound 1-3000 nM
T1 construct: endogenous in cells; host or cells: THP-1
T1 sequence (Q9NWZ3 1-460): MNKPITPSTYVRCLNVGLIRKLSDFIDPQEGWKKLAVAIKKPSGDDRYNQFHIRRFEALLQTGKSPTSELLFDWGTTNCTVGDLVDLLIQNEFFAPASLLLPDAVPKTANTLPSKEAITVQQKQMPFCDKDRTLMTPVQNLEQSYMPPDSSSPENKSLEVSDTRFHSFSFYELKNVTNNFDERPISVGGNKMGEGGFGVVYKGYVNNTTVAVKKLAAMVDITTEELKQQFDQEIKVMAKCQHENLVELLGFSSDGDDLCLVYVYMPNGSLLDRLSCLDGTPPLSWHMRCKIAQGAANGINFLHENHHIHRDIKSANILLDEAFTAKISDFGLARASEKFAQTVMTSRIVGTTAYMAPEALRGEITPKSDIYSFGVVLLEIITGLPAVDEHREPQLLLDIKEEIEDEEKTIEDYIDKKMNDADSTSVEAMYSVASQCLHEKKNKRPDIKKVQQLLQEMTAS
Outline: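 THP-1 cells (5×10^5/well) treated 24 h with compound at 1–3000 nM final. IRAK4 in lysates quantified by Western blot, normalized to internal reference and compared with control to give degradation rate; DC50 and Dmax from nonlinear fit of log concentration.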

IRAK4 kinase = target: T2, IRAK4 kinase (Homo sapiens, UniProt Q9NWZ3); experiment: IRAK4 kinase activity test (KinEASE-STK S1 HTRF kit); format: biochemical; details: 2.5 nM kinase, 1 μM biotinylated polypeptide substrate, 7 μM ATP, 37° C. 120 min
T2 sequence (Q9NWZ3 1-460): T1 sequence (Q9NWZ3 1-460)
Outline: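 Compound in DMSO, serially diluted to 10000–0.038 nM final, incubated with 2.5 nM kinase, 1 μM biotinylated peptide substrate and 7 μM ATP at 37° C for 120 min. Eu-anti-phospho-Ser/Thr antibody plus streptavidin-XL665 stopped the reaction (1 h RT). HTRF 665/620 nm ratio gave % inhibition versus control; IC50 from nonlinear log-concentration fit.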

Row | DC50 [1] [nM] | IC50 (IRAK4 kinase) [nM] | Dmax [1] [%] | SMILES
1 | 40.6 | 15.2 |  | COc1cc2nn(C3CCN(CC4CCN(CCOc5ccc6c(c5)C(=O)N(C5CCC(=O)NC5=O)C6=O)CC4)CC3)cc2cc1NC(=O)c1cccc(C(F)(F)F)n1 (centres unmarked) [Control group 2, N-(2-(1-((1-(2-((2-(2,6-dioxopiperidin-3-yl)-1,3-dioxoisoindol-5-yl)oxy)ethyl)piperidin-4-yl)methyl)piperidin-4-yl)-6-methoxy-2H-indazol-5-yl)-6-(trifluoromethyl) pyridinecarboxamide, reference compound]
2 | 19.8 | 16.2 | 75.3 | CN(CC1CCN(c2cccc3c2C(=O)N(C2CCC(=O)NC2=O)C3=O)CC1)C[C@H]1CC[C@H](n2cc3cc(NC(=O)c4cccc(C(F)(F)F)n4)c(C(C)(C)O)cc3n2)CC1 (some centres unmarked) [Control group 3, N-(2-((1r,4r)-4-((((1-(2-(2,6-dioxopiperidin-3-yl)-1,3-dioxoisoindolin-4-yl)piperidin-4-yl)methyl) (methyl)amino)methyl)cyclohexyl)-6-(2-hydroxyprop-2-yl)-2H-indazol-5-yl)-6-(trifluoromethyl) pyridinecarboxamide, reference compound]
3 | 2.6 | 14 | 97.1 | CC(C)(O)c1cc2nn(C3CCN(CC4CCC5(CC4)CCN(C(=O)c4ccc(Cl)c(N6CCC(=O)NC6=O)c4)CC5)CC3)cc2cc1NC(=O)c1cccc(C(F)(F)F)n1 [Example 31, N-(2-(1-((3-(4-chloro-3-(2,4-dioxotetrahydro-pyrimidin-1 (2H)-yl)benzoyl)-3-azaspiro [5.5]undec-9-yl)methyl)piperdin-4-yl)-6-(2-hydroxyprop-2-yl)-2H-indazol-5-yl)-6-(trifluoro-methyl) pyridinecarbox-amide]
